Results as given in the NIST ThermoML archive (doi:10.1016/j.jct.2011.09.001).
Numbers after ± are expanded uncertainties.

Columns and labels:
[1] = refractive index (Na D-line) (dimensionless); conditions: 101.33 kPa, Liquid, Standard Abbe refractometry
[2] = 101 kPa, Liquid; for speed of sound: Sing-around technique in a fixed-path interferometer; for mass density: Vibrating tube method
[3] = refractive index (Na D-line) (dimensionless); xn = mol fraction of the nth substance listed; conditions: 101 kPa, Liquid, Standard Abbe refractometry, x2 = 0
[4] = xn = mol fraction of the nth substance listed; conditions: 101 kPa, Liquid, x2 = 0; for speed of sound: Sing-around technique in a fixed-path interferometer; for mass density: Vibrating tube method

With CCCCCCCCCC [decane] the refractive index ([1]; 293.15 K) was 1.4123 ± 0.0005, the refractive index ([1]; 303.15 K) was 1.4079 ± 0.0005 and the refractive index ([1]; 313.15 K) was 1.4033 ± 0.0005. For the same compound, the refractive index ([1]; 323.15 K) was 1.3987 ± 0.0005, the refractive index ([1]; 333.15 K) was 1.3942 ± 0.0005 and the refractive index ([1]; 343.15 K) was 1.3893 ± 0.0005. The speed of sound ([2]; 293.15 K) was 1254.6 ± 1.2 m/s, the mass density ([2]; 293.15 K) was 730.1 ± 0.2 kg/m3 and the speed of sound ([2]; 303.15 K) was 1215.1 ± 1.2 m/s. The mass density ([2]; 303.15 K) was 722.6 ± 0.3 kg/m3, the speed of sound ([2]; 313.15 K) was 1176.1 ± 1.2 m/s and the mass density ([2]; 313.15 K) was 714.9 ± 0.3 kg/m3. The speed of sound ([2]; 323.15 K) was 1137.6 ± 1.2 m/s, the mass density ([2]; 323.15 K) was 707.3 ± 0.3 kg/m3 and the speed of sound ([2]; 333.15 K) was 1099.8 ± 1.2 m/s. It also gave a mass density ([2]; 333.15 K) of 699.5 ± 0.3 kg/m3, a speed of sound ([2]; 343.15 K) of 1062.3 ± 1.2 m/s and a mass density ([2]; 343.15 K) of 691.8 ± 0.3 kg/m3.

In the case of CCCCCCCCCC [decane] + c1ccc2c(c1)CCCC2, the refractive index ([3]; 293.15 K) is reported as 1.4123 ± 0.0005, the refractive index ([3]; 303.15 K) is reported as 1.4079 ± 0.0005 and the refractive index ([3]; 313.15 K) is reported as 1.4033 ± 0.0005. For the same compound, the refractive index ([3]; 323.15 K) was 1.3987 ± 0.0005, the refractive index ([3]; 333.15 K) was 1.3942 ± 0.0005 and the refractive index ([3]; 343.15 K) was 1.3893 ± 0.0005. It also gave a speed of sound ([4]; 293.15 K) of 1254.6 ± 1.2 m/s, a mass density ([4]; 293.15 K) of 730.1 ± 0.2 kg/m3 and a speed of sound ([4]; 303.15 K) of 1215.1 ± 1.2 m/s. It also gave a mass density ([4]; 303.15 K) of 722.6 ± 0.3 kg/m3, a speed of sound ([4]; 313.15 K) of 1176.1 ± 1.2 m/s and a mass density ([4]; 313.15 K) of 714.9 ± 0.3 kg/m3. For the same compound, the speed of sound ([4]; 323.15 K) was 1137.6 ± 1.2 m/s, the mass density ([4]; 323.15 K) was 707.3 ± 0.3 kg/m3 and the speed of sound ([4]; 333.15 K) was 1099.8 ± 1.2 m/s. The mass density ([4]; 333.15 K) was 699.5 ± 0.3 kg/m3, the speed of sound ([4]; 343.15 K) was 1062.3 ± 1.2 m/s and the mass density ([4]; 343.15 K) was 691.8 ± 0.3 kg/m3.

For c1ccc2c(c1)CCCC2 [1,2,3,4-tetrahydronaphthalene], the refractive index ([1]; 293.15 K) was 1.5414 ± 0.0005, the refractive index ([1]; 303.15 K) was 1.5367 ± 0.0005 and the refractive index ([1]; 313.15 K) was 1.5321 ± 0.0005. For the same compound, the refractive index ([1]; 323.15 K) was 1.5274 ± 0.0005, the refractive index ([1]; 333.15 K) was 1.5228 ± 0.0005 and the refractive index ([1]; 343.15 K) was 1.518 ± 0.0005. It also gave a speed of sound ([2]; 293.15 K) of 1489.5 ± 1.3 m/s, a mass density ([2]; 293.15 K) of 969.5 ± 0.2 kg/m3 and a speed of sound ([2]; 303.15 K) of 1450.1 ± 1.2 m/s. The mass density ([2]; 303.15 K) was 961.6 ± 0.2 kg/m3, the speed of sound ([2]; 313.15 K) was 1411.5 ± 1.2 m/s and the mass density ([2]; 313.15 K) was 953.7 ± 0.2 kg/m3. The speed of sound ([2]; 323.15 K) was 1373.6 ± 1.2 m/s, the mass density ([2]; 323.15 K) was 945.7 ± 0.2 kg/m3 and the speed of sound ([2]; 333.15 K) was 1336.4 ± 1.2 m/s. The mass density ([2]; 333.15 K) was 937.8 ± 0.2 kg/m3, the speed of sound ([2]; 343.15 K) was 1299.8 ± 1.2 m/s and the mass density ([2]; 343.15 K) was 929.8 ± 0.2 kg/m3.
